# Test results published in patent publication US20070276032A1, “Use of 8-Prenylnaringenin for Hormone Replacement Therapy” (priority 2003, published 2007).
# Columns and labels:
# ovariectomized rats [1] = test: Bone mineral density of proximal tibia, estradiol in ovariectomized rats (Example 2); type: in vivo, Sprague-Dawley rats; conditions: OVX rats; for Total bone density / Trabecular density: proximal tibia, s.c. 5 days a week, 4 weeks
# Description: Fifty-six female Sprague-Dawley rats, 12-14 weeks old, were used altogether. Forty-nine animals were randomized into seven groups. Group 8 (seven animals) administered with the third vehicle, benzyl alcohol/sesame oil, was added to the study thirteen days later. Seven groups were ovariectomized (OVX) and one group was sham-operated (SHAM). Animals were treated subcutaneously once a day, five days a week (Monday-Friday) as follows. Groups 1 (the SHAM group) and 2 (the OVX group) were given the vehicle benzylbenzoate/ricinus oil (0.5 ml/kg, B/R). […] Treatments started on the day following surgical operation and continued for 4 weeks. At the end of the study, ex vivo BMD of proximal tibia was measured and serum estradiol was determined. In addition, uterus was weighed. Bone mineral density measurement was carried out by pQCT (XCT-960A, Stratec, Germany). The bone specimens were thawed before measurement. Six 1 mm-thick sections of the proximal tibia (2 mm below the epiphyseal growth plate) were scanned at 0.5 mm intervals using a voxel size of 0.148 mm. […] After bone densitometry, the specimens were wrapped back to saline saturated gauzes and stored at −20° C.
# ovariectomized rats [2] = test: Relative uterine weight, estradiol in ovariectomized rats (Example 2); type: in vivo, Sprague-Dawley rats; conditions: OVX rats; for Relative uterine weight: s.c. 5 days a week, 4 weeks
# Description: (§1) Fifty-six female Sprague-Dawley rats, 12-14 weeks old, were used altogether. Forty-nine animals were randomized into seven groups. Group 8 (seven animals) administered with the third vehicle, benzyl alcohol/sesame oil, was added to the study thirteen days later. Seven groups were ovariectomized (OVX) and one group was sham-operated (SHAM). Animals were treated subcutaneously once a day, five days a week (Monday-Friday) as follows. Groups 1 (the SHAM group) and 2 (the OVX group) were given the vehicle benzylbenzoate/ricinus oil (0.5 ml/kg, B/R). […] Treatments started on the day following surgical operation and continued for 4 weeks. At the end of the study, ex vivo BMD of proximal tibia was measured and serum estradiol was determined. In addition, uterus was weighed. Relative uterine weight was calculated as percentage of body weight
# [3] = Body weight, estradiol in ovariectomized rats (Example 2); type: in vivo, Sprague-Dawley rats; conditions: OVX rats, s.c. once a day, 5 days a week, 4 weeks
# Description: as §1, with “weighed.” for “weighed. Relative uterine weight was calculated as percentage of body weight”
# ERE-Luc = test: Estrogenic activity in the estrogen reporter mouse ERE-Luc model, luciferase activity in organs (Example 5); type: in vivo, mice; conditions: male ERE-Luc mice, six hours after the injection; for Luciferase activity, Prostate: controls 0.5; for Luciferase activity, Bone: controls 2.8; for Luciferase activity, Brain: controls 6.5; for Luciferase activity, Liver: controls 7.6
# Description: In order to avoid experimental noise male animals were used.
# Fourtyfive heterozygous male ERE-Luc mice of two months of age were fed with soy-free diet for two weeks before assigning them to each experimental group then all the mice were injected intraperitoneally (i.p.) with 250 μl of an oily solution containing the following compounds: • 1. Experimental group 1: vehicle • 2. Experimental group 2: 17β-estradiol at 1.5 μg/kg • 3. Experimental group 3: 2S(−)-8-PN at 30 mg/kg • 4. […] Experimental group 5: genistein at 30 mg/kg.
# The treatment was carried out in experimental groups of three mice each and repeated three times (therefore numbers reflect the average of […] determinations on a total of 9 animals).
# Six hours after the injection, mice were sacrificed by cervical dislocation and organs were dissected and frozen on dry ice. The following organs were analyzed for lucifererase activity by enzymatic assay: prostate, liver, bone, brain.
# Data represent means ±standard deviation of N=9 animals per group.
# Analysis of variance (ANOVA) for overall comparison was followed by Tukey test for paired comparisons. All statistical procedures were carried out with Systat and SAS (*P<0.05; **P<0.01).
# ovariectomized rats [4] = test: Trabecular density of proximal tibia, 8-PN racemic, 2S(−) 8-PN and estradiol hemihydrate in ovariectomized rats (Example 4); type: in vivo, Sprague-Dawley rats; conditions: OVX rats, s.c. 28 days
# Description: (§2) The aim of the study was to directly compare the effects of Prenylnaringenin (racemate) and 2S(−) 8-Prenylnaringenin to the effects of estradiol hemihydrate on bone mineral density and uterine weight on 3-month-old ovariectomized rats using identical formulations. In addition, the effects of estradiolhemihydrate in two vehicles (oily, aqueous) were examined for influence of formulations. The substances were administered subcutaneously(s.c.) seven days a week beginning the day after ovariectomy. At the end of the study, uterine weight and bone mineral density (BMD) of tibia were measured.
# (§3) Forty-one female Sprague-Dawley rats, 12-14 weeks of age were randomized into six groups, 6-8 animals in each. Five groups were ovariectomized (OVX) and one group was sham-operated (SHAM). Treatments started on the day following operation and continued for 28 days. The animals were treated s.c. once a day seven times a week as follows. Group 1 (SHAM vehicle group) and group 2 (OVX vehicle group) were given the vehicle 30% hydroxypropyl-β-cyclodextrin (HP-β-CD). Groups 3 and 4 were administered 4 μg/kg/d of estradiol hemihydrate in vehicle benzyl benzoate/ricinus oil (B/R) and in vehicle HP-β-CD, respectively. Groups 5 and 6 were given 20 mg/kg/d of 2S(−)8-Prenylnaringenin and racemic 8-Prenylnaringenin, respectively, both in vehicle HP-β-CD. At the end of the study, left tibiae were excised for the ex vivo BMD […] were taken from all dosing solutions on the first and last day of use.
# (§4) Vehicle 1 (used in the groups 1 and 2): 30% hydroxypropyl-β-cyclodextrin and 0.3% NaCl (w/v), 5% ethanol (v/v) in Aqua sterilisata, pH 7.4.
# (§5) Vehicle 2 (used when preparing dosing solutions of the groups 4, 5 and 6): 30% hydroxypropyl-β-cyclodextrin and 0.3% NaCl (w/v) in Aqua sterilisata, pH 7.4.
# (§6) Vehicle 3 (used when preparing a dosing solution of the group 3): benzyl benzoate/ricinus oil (B/R) 1+4, v/v.
# ovariectomized rats [5] = test: Relative uterus weight, 8-PN racemic, 2S(−) 8-PN and estradiol hemihydrate in ovariectomized rats (Example 4); type: in vivo, Sprague-Dawley rats; conditions: OVX rats, s.c. 28 days, calculated as percentage of body weight
# Description: as §2, §3, §4, §5, §6
# [6] = Body weight, 8-PN racemic, 2S(−) 8-PN and estradiol hemihydrate in ovariectomized rats (Example 4); type: in vivo, Sprague-Dawley rats; conditions: OVX rats, s.c. once a day, 28 days
# Description: as §2, §3, §4, §5, §6
# [7] = 4.0 μpg/kg/d s.c. five times a week for four weeks
# [8] = 4 μg/kg/d in benzyl benzoate/ricinus oil (B/R)
structure (smiles),measurement,setting,value
C[C@]12CC[C@@H]3c4ccc(O)cc4CC[C@H]3[C@@H]1CC[C@@H]2O [17β-estradiol],effect on total and trabecular bone mineral density of proximal tibia,ovariectomized rats [1]; [7],prevented the OVX-induced decrease in total and trabecular bone mineral density of proximal tibia
same,Total bone density,ovariectomized rats [1]; 0.2 μg/kg/d in B/R,511 (17) mg/cm^3
same,Trabecular density,ovariectomized rats [1]; 0.2 μg/kg/d in B/R,271 (17) mg/cm^3
same,Total bone density,ovariectomized rats [1]; 0.4 μg/kg/d in B/R,506 (8) mg/cm^3
same,Trabecular density,ovariectomized rats [1]; 0.4 μg/kg/d in B/R,260 (13) mg/cm^3
same,Total bone density,ovariectomized rats [1]; 1.2 μg/kg/d in B/R,577 (24) mg/cm^3
same,Trabecular density,ovariectomized rats [1]; 1.2 μg/kg/d in B/R,376 (31) mg/cm^3
same,Total bone density,ovariectomized rats [1]; 1.2 μg/kg/d in E/A,577 (22) mg/cm^3
same,Trabecular density,ovariectomized rats [1]; 1.2 μg/kg/d in E/A,366 (24) mg/cm^3
same,Total bone density,ovariectomized rats [1]; 4.0 μg/kg/d in B/R,637 (13) mg/cm^3
same,Trabecular density,ovariectomized rats [1]; 4.0 μg/kg/d in B/R,435 (21) mg/cm^3
same,effect on relative uterine weight,ovariectomized rats [2]; [7],prevented the decrease in relative uterine weight and maintained it on the level of the SHAM vehicle group
same,Relative uterine weight,ovariectomized rats [2]; 0.2 μg/kg/d in B/R,0.045 (0.003) % of body weight
same,Relative uterine weight,ovariectomized rats [2]; 0.4 μg/kg/d in B/R,0.054 (0.003) % of body weight
same,Relative uterine weight,ovariectomized rats [2]; 1.2 μg/kg/d in B/R,0.110 (0.008) % of body weight
same,Relative uterine weight,ovariectomized rats [2]; 1.2 μg/kg/d in E/A,0.114 (0.005) % of body weight
same,Relative uterine weight,ovariectomized rats [2]; 4.0 μg/kg/d in B/R,0.159 (0.006) % of body weight
same,Final body weight,[3]; 0.2 μg/kg/d in vehicle B/R,304 (6) g
same,The change in body weight,[3]; 0.2 μg/kg/d in vehicle B/R,51 (3) g
same,Final body weight,[3]; 0.4 μg/kg/d in vehicle B/R,312 (6) g
same,The change in body weight,[3]; 0.4 μg/kg/d in vehicle B/R,53 (5) g
same,Final body weight,[3]; 1.2 μg/kg/d in vehicle B/R,303 (6) g
same,The change in body weight,[3]; 1.2 μg/kg/d in vehicle B/R,48 (4) g
same,Final body weight,[3]; 1.2 μg/kg/d in vehicle E/A,287 (8) g
same,The change in body weight,[3]; 1.2 μg/kg/d in vehicle E/A,33 (3) g
same,Final body weight,[3]; 4.0 μg/kg/d in vehicle B/R,284 (7) g
same,The change in body weight,[3]; 4.0 μg/kg/d in vehicle B/R,31 (3) g
same,"Luciferase activity, Prostate",ERE-Luc; i.p. 1.5 μg/kg,0.5 arbitrary units
same,"Luciferase activity, Bone",ERE-Luc; i.p. 1.5 μg/kg,2.6 arbitrary units
same,"Luciferase activity, Brain",ERE-Luc; i.p. 1.5 μg/kg,6.6 arbitrary units
same,"Luciferase activity, Liver",ERE-Luc; i.p. 1.5 μg/kg,11.0 ** arbitrary units
"O=c1c(-c2ccc(O)cc2)coc2cc(O)cc(O)c12 [Genistein, genistein]","Luciferase activity, Prostate",ERE-Luc; i.p. 30 mg/kg,0.7 ** arbitrary units
same,"Luciferase activity, Bone",ERE-Luc; i.p. 30 mg/kg,3.8 * arbitrary units
same,"Luciferase activity, Brain",ERE-Luc; i.p. 30 mg/kg,8.7 arbitrary units
same,"Luciferase activity, Liver",ERE-Luc; i.p. 30 mg/kg,12.2 ** arbitrary units
"C[C@]12CC[C@@H]3c4ccc(O)cc4CC[C@H]3[C@@H]1CC[C@@H]2O [estradiol hemihydrate, 17β-estradiol hemihydrate, reference compound]",Total bone density,ovariectomized rats [1]; 1.2 μg/kg/d in BA/S,596 (18) mg/cm^3
same,Trabecular density,ovariectomized rats [1]; 1.2 μg/kg/d in BA/S,386 (21) mg/cm^3
same,Relative uterine weight,ovariectomized rats [2]; 1.2 μg/kg/d in BA/S,0.131 (0.008) % of body weight
same,Final body weight,[3]; 1.2 μg/kg/d in vehicle BA/S,288 (11) g
same,The change in body weight,[3]; 1.2 μg/kg/d in vehicle BA/S,28 (1) g
same,"Trabecular density at left proximal tibia, Mean",ovariectomized rats [4]; 4 μg/kg/d in B/R,542 mg/cm3
same,"Trabecular density at left proximal tibia, Median",ovariectomized rats [4]; 4 μg/kg/d in B/R,577 mg/cm3
same,"Trabecular density at left proximal tibia, Mean",ovariectomized rats [4]; 4 μg/kg/d in HP-β-CD,406 mg/cm3
same,"Trabecular density at left proximal tibia, Median",ovariectomized rats [4]; 4 μg/kg/d in HP-β-CD,383 mg/cm3
same,"Relative uterus weight, Mean",ovariectomized rats [5]; 4 μg/kg/d in B/R,0.175
same,"Relative uterus weight, Median",ovariectomized rats [5]; 4 μg/kg/d in B/R,0.178
same,"Relative uterus weight, Mean",ovariectomized rats [5]; 4 μg/kg/d in HP-β-CD,0.131
same,"Relative uterus weight, Median",ovariectomized rats [5]; 4 μg/kg/d in HP-β-CD,0.120
same,Body weight at The end (bw4b),[6]; 4 μg/kg/d in HP-β-CD,285(9) g
same,The change in Body weight (bw4b-bw0),[6]; 4 μg/kg/d in HP-β-CD,10(4) g
same,Body weight at The end (bw4b),[6]; [8],291(9) g
same,The change in Body weight (bw4b-bw0),[6]; [8],17(4) g
